Assays:
[1] = test system: A375 (BRAF V600E) melanoma cell proliferation; parameters: method as in data on file; conditions: fraction of encorafenib potency; ref data on file; cited from earlier work
[2] = parameters: method as in data on file; conditions: ref data on file; cited from earlier work
[3] = Metabolite profiles in plasma (UPLC, radioactivity detection, MS); type: in vivo, human; conditions: for Mean (range) Circulating Radioactivity in Plasma Based on AUC0-24: 100 mg oral [14C] encorafenib; for Mean (range) Circulating Radioactivity in Plasma Based on AUC0-24 (%): M12.8 value is sum of M12.8 and M13.2
Protocol: To the thawed plasma samples (1.5 mL plasma/ time points) two volumes of ice‐cold acetonitrile:ethanol:acetic acid (90:10:0.1, v/v) were added, followed by vortex mixing (10 min) and sonication (10 min). After centrifugation, the supernatants (4.2 mL) were evaporated to near dryness under a gentle stream of nitrogen on a TurboVap LV (Zymark Corp.). The residues were reconstituted in 80 μL of methanol:water:acetic acid (50:50:0.1, v/v) and 45 μL were injected into the ultra‐performance liquid chromatography (UPLC) system with off‐line radioactivity detection.
Characterization and quantification of the metabolites of encorafenib in select human plasma and excreta samples were performed by the Department of DMPK (Drug Metabolism and Pharmacokinetics) at the Novartis Institutes for Biomedical Research (East Hanover, NJ, USA) using liquid chromatography (LC) coupled to radioactivity detectors and mass spectrometers (MS).
The analytical system consisted of a Waters ACQUITY UPLC system (Waters), equipped with a Phenomenex Luna PFP column (3 μm, 4.6 × 150 mm) (Phenomenex) and a guard column of the same phase, both maintained at a temperature of 30°C. The mobile phases consisted of 10 mM ammonium acetate containing 0.1% formic acid (v/v) (solvent A) and CH3CN (solvent B). The total run time was 80 min. A linear gradient elution program was used with a flow rate of 1 mL/min as described in Table 1.
The UPLC effluent was split 4:1, with […] of the total flow introduced to the mass spectrometer for mass spectral analysis and the remaining flow used for radioactivity detection.
For off‐line radioactivity detection, the eluant was collected into 96‐well Lumaplate (Packard Instrument Co) microplates using a Collect Pal fraction collector (Leap Technologies) with a collection time of 10 seconds per well. The LumaPlates were sealed after drying and counted for 10–50 min per well on a Packard Topcount microplate scintillation counter. The structural characterization of metabolites was carried out using the above UPLC profiling method coupled to a two‐channel Z‐spray (LockSprayTM) time‐of‐flight mass spectrometer (Synapt MS). Leucine enkephalin was used as the mass reference standard for exact mass measurements and was delivered via the second spray channel at a flow rate of 5 μL/minute. The mass spectrometer was operated at a resolution of ~10 000 m/ΔmFWHM with spectra being collected from 100 to 1000 amu. The ionization technique employed was positive electrospray. The sprayer voltage was kept at 3100 V and the sampling cone voltage was kept at a potential of 20 V. For the time‐of‐flight MS/MS experiments, trap energies of 25 to 45 eV and transfer energy of 15 eV were used with argon as the collision gas.
All radioactivity data were transferred to Laura software (version 4.2.2.24, Lab Logic Ltd, UK) to generate and integrate radio‐chromatograms. Radioactive peaks for quantitative analysis were manually selected from the plots. The radioactivity in the region encompassing the beginning and end of the peak was summed. All further calculations were based on radioactivity.
The percent of radioactivity (%RA) in a particular peak, Z, was calculated as follows in Equation (1): (1) %RAinZ=DPMin PeakZ/totalDPMinallintegrated peaksx100
The concentration or amount of each component was calculated as % RA (expressed as a fraction) multiplied by the total concentration of radioactivity in plasma, or the percent of dose in the excreta.

Row | Mean (range) Circulating Radioactivity in Plasma Based on AUC0-24 [3] | Mean (range) Circulating Radioactivity in Plasma Based on AUC0-24 (%) [3] | SMILES | Potency relative to encorafenib against A375 cell proliferation [1] | In vitro safety pharmacology result [2]
1 | 2430 (1740–3320) ngEq/mL*h | 15.5 (13.4–17.4) % | CC(C)n1cc(-c2ccnc(N)n2)c(-c2cc(Cl)cc(NS(C)(=O)=O)c2F)n1 [M42.5A] | approximately 1/30 | no significant safety signal
2 | 806 (525–1250) ngEq/mL*h | 5.09 (4.02–6.36) % | CC(O)CNc1nccc(-c2cn(C(C)C)nc2-c2cc(Cl)cc(NS(C)(=O)=O)c2F)n1 (stereo not drawn) [M44] | – | –

Reference: publication PMC10541456, “A phase I, single‐center, open‐label study to investigate the absorption, distribution, metabolism and excretion of encorafenib following a single oral dose of 100 mg [ ^14C] encorafenib in healthy male subjects” (Pharmacology Research & Perspectives, 2023)
